Laboratory results: patent publication US10124004B2, “Pyrido[3,4-d]pyrimidine derivative and pharmaceutically acceptable salt thereof” (Teijin Pharma Limited, priority 2015, dated 2018)
Like-named read-outs stand apart in the source and are kept apart here.

Legend:
[1] = target: T1, CDK2/cyclin A2 (Homo sapiens, UniProt P24941); test: Human CDK2/cyclin A2 inhibitory activity (QS S Assist CDK2/Cyclin A2_FP Kit, IMAP fluorescence polarization); type: biochemical
T1 construct: purchased Carna Biosciences, Inc. QS S Assist CDK2/Cyclin A2_FP Kit
Outline: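 Kinase activity read as fluorescence polarization (485/535 nm) after phosphorylated fluorescent substrate binds IMAP reagent (30 min, RT, dark). Enzyme (2.5 ng/well) reacted 60 min at RT with ATP/substrate/metal in HEPES pH 7.4 buffer with Tween 20 and DTT; no-enzyme wells define 0% activity; IC50 by curve fit.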

[2] = target: T2, CDK4/cyclin D3 (Homo sapiens, UniProt P11802); test: Human CDK4/cyclin D3 inhibitory activity (QS S Assist CDK4/Cyclin D3_FP Kit, IMAP fluorescence polarization); type: biochemical
T2 construct: purchased Carna Biosciences, Inc. QS S Assist CDK4/Cyclin D3_FP Kit
T2 sequence (P11802 whole entry): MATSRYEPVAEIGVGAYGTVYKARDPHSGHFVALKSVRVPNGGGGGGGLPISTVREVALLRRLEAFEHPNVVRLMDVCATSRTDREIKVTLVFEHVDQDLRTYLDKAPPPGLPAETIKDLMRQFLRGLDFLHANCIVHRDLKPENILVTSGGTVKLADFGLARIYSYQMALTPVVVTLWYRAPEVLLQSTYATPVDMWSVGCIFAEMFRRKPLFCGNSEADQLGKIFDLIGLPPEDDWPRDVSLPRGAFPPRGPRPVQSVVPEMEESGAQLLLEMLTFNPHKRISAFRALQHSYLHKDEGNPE
T2 sequence (P30281 whole entry partner): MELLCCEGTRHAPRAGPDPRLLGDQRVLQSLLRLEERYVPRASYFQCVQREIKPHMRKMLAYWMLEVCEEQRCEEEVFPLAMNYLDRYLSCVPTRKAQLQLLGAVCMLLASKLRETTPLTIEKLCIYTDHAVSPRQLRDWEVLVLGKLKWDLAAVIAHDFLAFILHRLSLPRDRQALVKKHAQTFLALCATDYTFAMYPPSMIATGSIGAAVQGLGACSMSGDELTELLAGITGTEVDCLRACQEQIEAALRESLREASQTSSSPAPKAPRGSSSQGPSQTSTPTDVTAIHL
Outline: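 IMAP fluorescence-polarization kinase assay with kit ATP/substrate/metal mix and 12.5 to 25 ng/well enzyme in 20 mM HEPES pH 7.4, 0.01% Tween20, 2 mM DTT. Reaction ran 45 min at room temperature, then binding reagent was added for 30 min in the dark. IC50 was taken from dose-response fits of percent inhibition.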

[3] = Human CDK2/cyclin A2 inhibitory activity, read-out: CDK2 Activity symbol
[4] = Human CDK4/cyclin D3 inhibitory activity, read-out: CDK4 Activity symbol
[5] = 50% inhibitory concentration against CDK2/cyclin A2, given as class symbol
[6] = 50% inhibitory concentration against CDK4/cyclin D3, given as class symbol

Structure (SMILES)	IC50 [1, 3]	IC50 [2, 4]	IC50 [1, 5]	IC50 [2, 6]
CC(C)Nc1nc([C@@H](C)O)cc2cnc(Nc3ccc(OCCN(C)C)cn3)nc12 [Compound 245]	≥ 100 nM	< 10 nM		
CC(C)Nc1nc(C(F)F)cc2cnc(Nc3ccc(CN4CCCCC4)cn3)nc12 [Compound 177]	10 to 100 nM	< 10 nM		
CO[C@H](C)c1cc2cnc(Nc3ccc(OC4CCNCC4)cn3)nc2c(NCC2CCOCC2)n1 [Compound 927]			≥ 100 nM	< 10 nM
C[C@@H](O)c1cc2cnc(Nc3ccc(CN4CCNCC4)cn3)nc2c(NCC2CCOC2)n1 (stereo partly shown) [Compound 323]	≥ 100 nM	< 10 nM		
C[C@@H](O)c1cc2cnc(Nc3ccc(N4CCN(C)CC4)nn3)nc2c(N[C@H]2CCCOC2)n1 [Compound 640]			≥ 100 nM	< 10 nM
CC(C)Nc1nc(C(F)F)cc2cnc(Nc3ccc(CCC(=O)O)cn3)nc12 [Compound 111]	≥ 100 nM	10 to 100 nM		
CC(C)Nc1nc([C@@H](C)O)cc2cnc(Nc3ccc(N4CCn5cncc5C4)nn3)nc12 [Compound 964]			≥ 100 nM	< 10 nM
CCCNc1nc(C2CCOC2)cc2cnc(Nc3ccc4c(n3)CCNC4)nc12 (stereo not shown) [Compound 948]			≥ 100 nM	< 10 nM
C[C@@H](O)c1cc2cnc(Nc3ccc(CN4CCNCC4)cn3)nc2c(N[C@H]2CC[C@H](C(=O)O)CC2)n1 [Compound 342]	≥ 100 nM	< 10 nM		
CC(C)Nc1nc(C(F)F)cc2cnc(Nc3ccc(-n4cnnn4)cn3)nc12 [Compound 211]	10 to 100 nM	10 to 100 nM		
CC(C)Nc1nc([C@@H](C)O)cc2cnc(Nc3ccc4c(n3)CNC4)nc12 [Compound 695]			≥ 100 nM	< 10 nM
COCC(C)(C)Nc1nc([C@@H](C)O)cc2cnc(Nc3ccc(CN4CCC(OC)CC4)cn3)nc12 [Compound 294]	≥ 100 nM	< 10 nM		
CC(C)Nc1nc([C@@H](C)O)cc2cnc(Nc3ccc(N4CCN(C[C@H](C)O)CCC4=O)cn3)nc12 [Compound 720]			≥ 100 nM	< 10 nM
C[C@@H](O)c1cc2cnc(Nc3ccc(N4CCNCC4)cn3)nc2c(NCCCF)n1 [Compound 1212]			≥ 100 nM	< 10 nM
CCNc1nc([C@@H](C)O)cc2cnc(Nc3ccc(CN4CCN(C(C)CO)CC4)cn3)nc12 (single isomer, unassigned) [Compound 1089]			≥ 100 nM	< 10 nM
CCNc1nc([C@@H](C)O)cc2cnc(Nc3ccc(N4CCNCC4=O)cn3)nc12 [Compound 812]			≥ 100 nM	10 to 100 nM
CC(C)Nc1nc([C@@H](C)O)cc2cnc(Nc3ccc(CN4CCC(O)CC4)cn3)nc12 [Compound 1019]			≥ 100 nM	< 10 nM
CC(C)Nc1nc([C@@H](C)O)cc2cnc(Nc3ccc(CN4CCC(CO)CC4)cn3)nc12 [Compound 1016]			≥ 100 nM	< 10 nM
COCC(C)(C)Nc1nc([C@@H](C)O)cc2cnc(Nc3ccc(C4CCNCC4)cn3)nc12 [Compound 215]	≥ 100 nM	< 10 nM		
CC(C)Nc1nc([C@@H](C)O)cc2cnc(Nc3ccc(O[C@H]4CC[C@@H](N(C)C)CC4)cn3)nc12 [Compound 741]			≥ 100 nM	< 10 nM
CC(C)Nc1nc([C@@H](C)O)cc2cnc(Nc3ccc(N4CCC(O)C5(CC5)C4)nn3)nc12 (stereo partly shown) [Compound 723]			≥ 100 nM	< 10 nM
FC(F)c1cc2cnc(Nc3ccc(N4CCNCC4)cn3)nc2c(NC2CC2)n1 [Compound 18]	≥ 100 nM	< 10 nM		
CC(C)Nc1nc(C(F)F)cc2cnc(Nc3ccc(OCCCO)cn3)nc12 [Compound 156]	≥ 100 nM	< 10 nM		
C[C@@H](O)c1cc2cnc(Nc3ccc4c(n3)CCN(C(=O)CO)C4)nc2c(N[C@H]2CC[C@H](C)CC2)n1 [Compound 652]			≥ 100 nM	< 10 nM
CO[C@H](C)c1cc2cnc(Nc3ccc(CN4CCNCC4)cn3)nc2c(N[C@@H]2CCOC2)n1 [Compound 303]	≥ 100 nM	< 10 nM		
CC(C)Nc1nc(C(F)F)cc2cnc(Nc3ncc(N4CCNCC4)cn3)nc12 [Compound 163]	≥ 100 nM	< 10 nM		
CCCNc1nc([C@@H](C)OC)cc2cnc(Nc3ccc4c(n3)CCN(CCO)C4)nc12 [Compound 1119]			≥ 100 nM	< 10 nM
FC(F)c1cc2cnc(Nc3ccc(N4CCNCC4)cn3)nc2c(NC2CCOCC2)n1 [Compound 4]	10 to 100 nM	< 10 nM		
C[C@@H](O)c1cc2cnc(Nc3ccc(CN4CCN(CCO)CC4)cn3)nc2c(NC2CCC2)n1 [Compound 998]			≥ 100 nM	< 10 nM
